System: persian speedwell
Experiment: Test Example 4: herbicidal effect by soil treatment (Table 19, symbol R)
Assay type: in vivo, Persian speedwell (Veronica persica)
Conditions: AAH 320 g/ha
Method in brief: (§1)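 Seeds were sown in sterilized diluvial soil and covered with about 1.5 cm of soil. An emulsion formulation diluted with water to a predetermined herbicide amount was sprayed evenly onto the soil surface. Plants grew in a greenhouse at 25° C. to 30° C., and the effect was scored three weeks after application using criteria from an earlier test.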

Compound | R: persian speedwell, herbicidal effect rating
COc1nn(C)c(=O)c(-c2c(-c3ccc(C#N)cc3)sc3ccccc23)c1O [1-170] | 5 (Herbicidal rate of 90% or more (almost completely withered))

System: Chinese sprangletop
Experiment: Test Example 3: herbicidal effect by foliage application, Wagner pot (Table 18, symbol D)
Assay type: in vivo, chinese sprangletop (Leptochloa chinensis)
Conditions: 320 g/ha
Method in brief: (§2)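 Plants were sown in alluvial soil held under 0.1–0.5 cm standing water and grown 14 days in a greenhouse at 25–30 °C. An emulsifiable formulation, water-diluted to the set dose, was then sprayed onto the foliage, and effects were scored three weeks later using previously defined criteria.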

Compound | herbicidal effect on D (Chinese sprangletop), rating 0-5
COc1nn(C)c(=O)c(-c2c(-c3ccc(C#N)cc3)sc3ccccc23)c1O [1-170] | 1 (Herbicidal rate of 5% or more and less than 20%)

System: rice flat sedge
Experiment: Test Example 3: herbicidal effect by foliage application, Wagner pot (Table 18, symbol E)
Assay type: in vivo, rice flat sedge (Cyperus iria)
Conditions: 320 g/ha
Method in brief: as §2

Compound | herbicidal effect on E (rice flat sedge), rating 0-5
COc1nn(C)c(=O)c(-c2c(-c3ccc(C#N)cc3)sc3ccccc23)c1O [1-170] | 5 (Herbicidal rate of 90% or more (almost completely withered))

System: green foxtail
Experiment: Test Example 4: herbicidal effect by soil treatment (Table 19, symbol G)
Assay type: in vivo, green foxtail (Setaria viridis)
Conditions: AAH 320 g/ha
Method in brief: as §1

Compound | G: green foxtail, herbicidal effect rating
COc1nn(C)c(=O)c(-c2c(-c3ccc(C#N)cc3)sc3ccccc23)c1O [1-170] | 0 (Herbicidal rate of 5% or less (almost no effect))

System: velvetleaf
Experiment: Test Example 5: herbicidal effect by foliage application, plastic box (Table 20, symbol M)
Assay type: in vivo, velvetleaf (Abutilon theophrasti)
Conditions: foliage application, AAH 320 g/ha, three weeks after application
Method in brief: (§3)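 Plants sown in sterilized diluvial soil and grown 14 days in a greenhouse at 25° C to 30° C, then sprayed on the foliage with the compound's emulsion diluted in water to a predetermined herbicide amount. Injury to weeds and crops scored three weeks after application on a visual rating scale.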

Compound | M: velvetleaf, herbicidal effect
COc1nn(C)c(=O)c(-c2c(-c3ccc(C#N)cc3)sc3ccccc23)c1O [1-170] | 5 (Herbicidal rate of 90% or more (almost completely withered))

System: lambsquarters
Experiment: Test Example 5: herbicidal effect by foliage application, plastic box (Table 20, symbol O)
Assay type: in vivo, lambsquarters (Chenopodium album)
Conditions: foliage application, AAH 320 g/ha, three weeks after application
Method in brief: as §3

Compound | O: lambsquarters, herbicidal effect
COc1nn(C)c(=O)c(-c2c(-c3ccc(C#N)cc3)sc3ccccc23)c1O [1-170] | 5 (Herbicidal rate of 90% or more (almost completely withered))

System: green foxtail
Experiment: Test Example 5: herbicidal effect by foliage application, plastic box (Table 20, symbol G)
Assay type: in vivo, green foxtail (Setaria viridis)
Conditions: foliage application, AAH 320 g/ha, three weeks after application
Method in brief: as §3

Compound | G: green foxtail, herbicidal effect
COc1nn(C)c(=O)c(-c2c(-c3ccc(C#N)cc3)sc3ccccc23)c1O [1-170] | 5 (Herbicidal rate of 90% or more (almost completely withered))

System: chickweed
Experiment: Test Example 4: herbicidal effect by soil treatment (Table 19, symbol P)
Assay type: in vivo, common chickweed (Stellaria media)
Conditions: AAH 320 g/ha
Method in brief: as §1

Compound | P: chickweed, herbicidal effect rating
COc1nn(C)c(=O)c(-c2c(-c3ccc(C#N)cc3)sc3ccccc23)c1O [1-170] | 4 (Herbicidal rate of 70% or more and less than 90%)

System: barnyard grass
Experiment: Test Example 3: herbicidal effect by foliage application, Wagner pot (Table 18, symbol H)
Assay type: in vivo, barnyard grass (Echinochloa crus-galli)
Conditions: 320 g/ha
Method in brief: as §2

Compound | herbicidal effect on H (barnyard grass), rating 0-5
COc1nn(C)c(=O)c(-c2c(-c3ccc(C#N)cc3)sc3ccccc23)c1O [1-170] | 2 (Herbicidal rate of 20% or more and less than 40%)

System: barnyard grass
Experiment: Test Example 4: herbicidal effect by soil treatment (Table 19, symbol H)
Assay type: in vivo, barnyard grass (Echinochloa crus-galli)
Conditions: AAH 320 g/ha
Method in brief: as §1

Compound | H: barnyard grass, herbicidal effect rating
COc1nn(C)c(=O)c(-c2c(-c3ccc(C#N)cc3)sc3ccccc23)c1O [1-170] | 0 (Herbicidal rate of 5% or less (almost no effect))

System: southern crabgrass
Experiment: Test Example 5: herbicidal effect by foliage application, plastic box (Table 20, symbol F)
Assay type: in vivo, southern crabgrass (Digitaria ciliaris)
Conditions: foliage application, AAH 320 g/ha, three weeks after application
Method in brief: as §3

Compound | F: southern crabgrass, herbicidal effect
COc1nn(C)c(=O)c(-c2c(-c3ccc(C#N)cc3)sc3ccccc23)c1O [1-170] | 3 (Herbicidal rate of 40% or more and less than 70%)

System: Italian ryegrass
Experiment: Test Example 4: herbicidal effect by soil treatment (Table 19, symbol K)
Assay type: in vivo, Italian ryegrass (Lolium multiflorum)
Conditions: AAH 320 g/ha
Method in brief: as §1

Compound | K: Italian ryegrass, herbicidal effect rating
COc1nn(C)c(=O)c(-c2c(-c3ccc(C#N)cc3)sc3ccccc23)c1O [1-170] | 0 (Herbicidal rate of 5% or less (almost no effect))

System: lambsquarters
Experiment: Test Example 4: herbicidal effect by soil treatment (Table 19, symbol O)
Assay type: in vivo, lambsquarters (Chenopodium album)
Conditions: AAH 320 g/ha
Method in brief: as §1

Compound | O: lambsquarters, herbicidal effect rating
COc1nn(C)c(=O)c(-c2c(-c3ccc(C#N)cc3)sc3ccccc23)c1O [1-170] | 0 (Herbicidal rate of 5% or less (almost no effect))

System: barnyard grass
Experiment: Test Example 5: herbicidal effect by foliage application, plastic box (Table 20, symbol H)
Assay type: in vivo, barnyard grass (Echinochloa crus-galli)
Conditions: foliage application, AAH 320 g/ha, three weeks after application
Method in brief: as §3

Compound | H: barnyard grass, herbicidal effect
COc1nn(C)c(=O)c(-c2c(-c3ccc(C#N)cc3)sc3ccccc23)c1O [1-170] | 4 (Herbicidal rate of 70% or more and less than 90%)

System: southern crabgrass
Experiment: Test Example 4: herbicidal effect by soil treatment (Table 19, symbol F)
Assay type: in vivo, southern crabgrass (Digitaria ciliaris)
Conditions: AAH 320 g/ha
Method in brief: as §1

Compound | F: southern crabgrass, herbicidal effect rating
COc1nn(C)c(=O)c(-c2c(-c3ccc(C#N)cc3)sc3ccccc23)c1O [1-170] | 0 (Herbicidal rate of 5% or less (almost no effect))

System: windgrass
Experiment: Test Example 5: herbicidal effect by foliage application, plastic box (Table 20, symbol L)
Assay type: in vivo, windgrass (Apera spica-venti)
Conditions: foliage application, AAH 320 g/ha, three weeks after application
Method in brief: as §3

Compound | L: windgrass, herbicidal effect
COc1nn(C)c(=O)c(-c2c(-c3ccc(C#N)cc3)sc3ccccc23)c1O [1-170] | 0 (Herbicidal rate of 5% or less (almost no effect))

System: blackgrass
Experiment: Test Example 5: herbicidal effect by foliage application, plastic box (Table 20, symbol J)
Assay type: in vivo, blackgrass (Alopecurus myosuroides)
Conditions: foliage application, AAH 320 g/ha, three weeks after application
Method in brief: as §3

Compound | J: blackgrass, herbicidal effect
COc1nn(C)c(=O)c(-c2c(-c3ccc(C#N)cc3)sc3ccccc23)c1O [1-170] | 0 (Herbicidal rate of 5% or less (almost no effect))

System: Italian ryegrass
Experiment: Test Example 5: herbicidal effect by foliage application, plastic box (Table 20, symbol K)
Assay type: in vivo, Italian ryegrass (Lolium multiflorum)
Conditions: foliage application, AAH 320 g/ha, three weeks after application
Method in brief: as §3

Compound | K: Italian ryegrass, herbicidal effect
COc1nn(C)c(=O)c(-c2c(-c3ccc(C#N)cc3)sc3ccccc23)c1O [1-170] | 3 (Herbicidal rate of 40% or more and less than 70%)

System: velvetleaf
Experiment: Test Example 4: herbicidal effect by soil treatment (Table 19, symbol M)
Assay type: in vivo, velvetleaf (Abutilon theophrasti)
Conditions: AAH 320 g/ha
Method in brief: as §1

Compound | M: velvetleaf, herbicidal effect rating
COc1nn(C)c(=O)c(-c2c(-c3ccc(C#N)cc3)sc3ccccc23)c1O [1-170] | 0 (Herbicidal rate of 5% or less (almost no effect))

System: windgrass
Experiment: Test Example 4: herbicidal effect by soil treatment (Table 19, symbol L)
Assay type: in vivo, windgrass (Apera spica-venti)
Conditions: AAH 320 g/ha
Method in brief: as §1

Compound | L: windgrass, herbicidal effect rating
COc1nn(C)c(=O)c(-c2c(-c3ccc(C#N)cc3)sc3ccccc23)c1O [1-170] | 0 (Herbicidal rate of 5% or less (almost no effect))

System: persian speedwell
Experiment: Test Example 5: herbicidal effect by foliage application, plastic box (Table 20, symbol R)
Assay type: in vivo, Persian speedwell (Veronica persica)
Conditions: foliage application, AAH 320 g/ha, three weeks after application
Method in brief: as §3

Compound | R: persian speedwell, herbicidal effect
COc1nn(C)c(=O)c(-c2c(-c3ccc(C#N)cc3)sc3ccccc23)c1O [1-170] | 5 (Herbicidal rate of 90% or more (almost completely withered))

System: chickweed
Experiment: Test Example 5: herbicidal effect by foliage application, plastic box (Table 20, symbol P)
Assay type: in vivo, common chickweed (Stellaria media)
Conditions: foliage application, AAH 320 g/ha, three weeks after application
Method in brief: as §3

Compound | P: chickweed, herbicidal effect
COc1nn(C)c(=O)c(-c2c(-c3ccc(C#N)cc3)sc3ccccc23)c1O [1-170] | 5 (Herbicidal rate of 90% or more (almost completely withered))

System: redroot pigweed
Experiment: Test Example 5: herbicidal effect by foliage application, plastic box (Table 20, symbol N)
Assay type: in vivo, redroot pigweed (Amaranthus retroflexus)
Conditions: foliage application, AAH 320 g/ha, three weeks after application
Method in brief: as §3

Compound | N: redroot pigweed, herbicidal effect
COc1nn(C)c(=O)c(-c2c(-c3ccc(C#N)cc3)sc3ccccc23)c1O [1-170] | 5 (Herbicidal rate of 90% or more (almost completely withered))

System: wild oat
Experiment: Test Example 5: herbicidal effect by foliage application, plastic box (Table 20, symbol I)
Assay type: in vivo, wild oat (Avena fatua)
Conditions: foliage application, AAH 320 g/ha, three weeks after application
Method in brief: as §3

Compound | I: wild oat, herbicidal effect
COc1nn(C)c(=O)c(-c2c(-c3ccc(C#N)cc3)sc3ccccc23)c1O [1-170] | 2 (Herbicidal rate of 20% or more and less than 40%)

System: wild oat
Experiment: Test Example 4: herbicidal effect by soil treatment (Table 19, symbol I)
Assay type: in vivo, wild oat (Avena fatua)
Conditions: AAH 320 g/ha
Method in brief: as §1

Compound | I: wild oat, herbicidal effect rating
COc1nn(C)c(=O)c(-c2c(-c3ccc(C#N)cc3)sc3ccccc23)c1O [1-170] | 0 (Herbicidal rate of 5% or less (almost no effect))

System: blackgrass
Experiment: Test Example 4: herbicidal effect by soil treatment (Table 19, symbol J)
Assay type: in vivo, blackgrass (Alopecurus myosuroides)
Conditions: AAH 320 g/ha
Method in brief: as §1

Compound | J: blackgrass, herbicidal effect rating
COc1nn(C)c(=O)c(-c2c(-c3ccc(C#N)cc3)sc3ccccc23)c1O [1-170] | 0 (Herbicidal rate of 5% or less (almost no effect))

System: redroot pigweed
Experiment: Test Example 4: herbicidal effect by soil treatment (Table 19, symbol N)
Assay type: in vivo, redroot pigweed (Amaranthus retroflexus)
Conditions: AAH 320 g/ha
Method in brief: as §1

Compound | N: redroot pigweed, herbicidal effect rating
COc1nn(C)c(=O)c(-c2c(-c3ccc(C#N)cc3)sc3ccccc23)c1O [1-170] | 5 (Herbicidal rate of 90% or more (almost completely withered))
